Measurements: patent US20220125747A1, “APPLICATION OF ACTIVE INGREDIENT WGX50 IN ZANTHOXYLUM BUNGEANUM EXTRACT” (Shanghai Jiao Tong University, priority 2020, published 2022)

Assays:
Assay type in all cases: cell-based
keratinocytes = assay: cytotoxicity test based on keratinocytes (MTT); settings: for Cell vitality Mean: keratinocytes, 24 hours, MTT
Protocol: Embodiment 1, cytotoxicity test based on keratinocytes. Set up 8 concentration gradients, and set up 3 repeating holes under each concentration. At the same time, solvent control hole, zero adjustment hole (KC2500) and positive control hole (PC, 4% Dimethyl sulfoxide, DMSO) are set up in the experiment. After incubation for 24 hours, the cell viability is detected by MTT method, and the maximum safe concentration of cell administration is screened. The MTT test results are shown in Table 1, in which the GraphPad Prism Program software is used for mapping, and T-test statistical analysis is used among all groups. P-value<0.05 indicates significant difference, and P-value<0.01 indicates extremely significant difference. According to the results of MTT assay, the concentration near the inflection point of cell vitality is selected, and after incubation and culture for 24 hours, the cell morphology is observed under the inverted microscope and photographed (20×), and the morphological detection results are shown in FIG. 2.

melanocytes = assay: cytotoxicity test based on melanocytes (MTT); settings: for Cell vitality Mean: melanocytes, 24 hours
Protocol: Embodiment 2, cytotoxicity test based on melanocytes. Set up 8 concentration gradients, and set up 3 repeating holes under each concentration. At the same time, solvent control well, Medium-254 well and positive control well (PC, 8% DMSO) are set up in the experiment. After incubation for 24 hours, the cell viability is detected by MTT method, and the maximum safe concentration of cell administration is screened.

TNFα = assay: anti-inflammatory test of keratinocytes stimulated by UVB, TNFα ELISA; settings: for TNFα Decreased ratio (compared to NC) / TNFα Average concentration: 24 h; for TNFα Average concentration: ELISA of culture supernatant
Description: (§1) 3. Anti-inflammatory test based on UVB (ultraviolet radiation b) stimulation of keratinocytes. The blank control (oil-soluble), solvent control (oil-soluble), positive control and sample groups are grouped in the experiment. The detection indexes are TNFα (a pro-inflammatory factors, the NF-κB signaling pathway mediates and initiates the transcription of TNFα (abbreviation for tumor necrosis factor alpha), and after TNFα is synthesized, it binds to its receptor and in turn activates the NF-κB signaling pathway) and IL1-α (a pro-inflammatory factor being non-hydrophobic polypeptide, which is secreted out of cells after cell membrane damage, and then the pro-inflammatory factor binds to its corresponding receptor IL1R and activates NF-κB to induce inflammatory cascade reaction), the detection and analysis are performed according to the operating manual of the TNFα and IL1-α kits.
Embodiment 5, anti-inflammatory test of keratinocytes stimulated by UVB.
(§2) TNFα and IL1-α expression detection process: after 24 hours of incubation, the cell culture supernatant is collected, and the detection and analysis are performed according to the operating instructions of the TNFα and IL1-α kit. When using the T-Test method for statistical analysis, the NC group is compared with the BC group, and the significance is indicated by #, P-value<0.05 is indicated as #, P-value<0.01 is indicated as ##; sample group and positive control group are compared with NC group, and significance is represented by *, P-value<0.05 is represented by *, P-value<0.01 is represented by * *.

IL-1α = assay: anti-inflammatory test of keratinocytes stimulated by UVB, IL-1α ELISA; settings: for IL-1α Decreased ratio (compared to NC) / IL-1α Average concentration: 24 h; for IL-1α Average concentration: ELISA of culture supernatant
Description: as §1, §2

MC1R = assay: whitening gene test based on melanocytes (qRT-PCR), MC1R; settings: 100 μM, 24 h
Protocol: (§3) 2. Whitening gene test based on melanocytes. First, the cytotoxicity of melanocytes is tested, and then the experimental design is carried out, and a blank control group and a sample group are set up. The detection indexes are MC1R (melanocortin receptor), MITF (melanogenesis transcription factor), TYR (melanin synthesis and transport related gene) and TYP-1 (tyrosinase related protein). RNA extraction, reverse transcription and fluorescence quantitative PCR are carried out, and the results are calculated by 2^−ΔΔCT method.
(§4) Embodiment 4, whitening gene test based on melanocytes.
(§5) Gene detection process: after 24 hours of incubation, the cells are sampled, and RNA extraction, reverse transcription and fluorescence quantitative PCR detection are carried out according to the kit instructions, and the results are calculated by 2^−ΔΔΔCT method. When statistical analysis is carried out by T-Test method, significance is represented by *, P-value<0.05 is represented by *, and P-value<0.01 is represented by * *.

Filaggrin = assay: moisturizing gene test based on keratinocytes (qRT-PCR), Filaggrin; settings: 5 μM, 24 h
Protocol: (§6) 1. Moisturizing gene test based on keratinocytes. First, the cytotoxicity of keratinocytes is tested, and then the experimental design is carried out, and a blank control group and a sample group are set up. The detection indexes are AQP3 (aquaporin), CD44 (cell-surface glycoproteins), Filaggrin (protein), claudin-1 (tight junction protein) and HAS2 (hyaluronic acid synthetase). RNA extraction, reverse transcription and fluorescence quantitative PCR are carried out, and the results are calculated by 2^−ΔΔCT method.
(§7) Embodiment 3, moisturizing gene test based on keratinocytes.
as §5, with “after incubation for” for “after”, “hours,” for “hours of incubation,”, “instruction,” for “instructions,”

Claudin-1 = assay: moisturizing gene test based on keratinocytes (qRT-PCR), Claudin-1; settings: 5 μM, 24 h
Protocol: as §6, §7
as §5, with “after incubation for” for “after”, “hours,” for “hours of incubation,”, “instruction,” for “instructions,”

TRP-1 = assay: whitening gene test based on melanocytes (qRT-PCR), TRP-1; settings: 100 μM, 24 h
Protocol: as §3, §4, §5

TYR = assay: whitening gene test based on melanocytes (qRT-PCR), TYR; settings: 100 μM, 24 h
Protocol: as §3, §4, §5

MITF = assay: whitening gene test based on melanocytes (qRT-PCR), MITF; settings: 100 μM, 24 h
Protocol: as §3, §4, §5

AQP3 gene = assay: moisturizing gene test based on keratinocytes (qRT-PCR), AQP3; settings: 5 μM, 24 h
Protocol: as §6, §7
AQP3 aquaporin in the detection index, located on the cell membrane, has the function of transporting water and plays an important role in the process of skin moisturizing.
as §5, with “after incubation for” for “after”, “hours,” for “hours of incubation,”, “instruction,” for “instructions,”

CD44 = assay: moisturizing gene test based on keratinocytes (qRT-PCR), CD44; settings: 5 μM, 24 h
Protocol: as §6, §7
as §5, with “after incubation for” for “after”, “hours,” for “hours of incubation,”, “instruction,” for “instructions,”

HAS2 = assay: moisturizing gene test based on keratinocytes (qRT-PCR), HAS2; settings: 5 μM, 24 h
Protocol: as §6, §7
as §5, with “after incubation for” for “after”, “hours,” for “hours of incubation,”, “instruction,” for “instructions,”

[1] = 5 μM, compared with the positive control group (so in the source), P-value<0.01

With `C[S+](C)[O-]` [DMSO, Dimethyl sulfoxide, reference compound] as the molecule, how does the “Cell vitality Mean” value (keratinocytes; positive control 4% DMSO) read?
The value was 30.27%.

And the “Cell vitality Mean” value (melanocytes; positive control 8% DMSO)?
The value was 24.23%.

With `C[C@@H]1C[C@H]2[C@@H]3CCC4=CC(=O)C=C[C@]4(C)[C@@]3(F)[C@@H](O)C[C@]2(C)[C@@]1(O)C(=O)CO` [PC, Dexamethasone, reference compound] as the molecule, how does the “TNFα Decreased ratio (compared to NC)” value (TNFα; 100 μg/mL) read?
Its value is 94%.

And the “TNFα Average concentration” value (TNFα; 100 μg/mL)?
The value was 8.34 pg/mL.

And the “secretion of TNFα compared with the solvent control group” value (TNFα; 100 μg/mL, P-value<0.01)?
The value was “decreases significantly”.

What about the “IL-1α Decreased ratio (compared to NC)” value (IL-1α; 100 μg/mL) of the same molecule?
Its value is 29%.

And the “IL-1α Average concentration” value (IL-1α; 100 μg/mL)?
Its value is 93.97 pg/mL.

And the “secretion of IL-1α compared with the solvent control group” value (IL-1α; 100 μg/mL, P-Value<0.05)?
Its value is “decreases significantly”.

Which “expression of MC1R gene in melanocytes compared with the blank control group” value (MC1R; P-value<0.01) does the source give for `COc1ccc(CCNC(=O)/C=C/c2ccccc2)cc1OC` [WGX50, (E)-N[2-(3,4-dimethoxyphenyl)ethyl]-3-phenylacrylamide] here?
The value was “significantly inhibits”.

And the “MC1R Increased ratio (compared to BC)” value (MC1R; qRT-PCR)?
The value was 47.2%.

And the “MC1R gene expression Mean (2^−ΔΔCT)” value (MC1R; qRT-PCR)?
Its value is 0.528.

What about the cytotoxicity to keratinocytes (keratinocytes; in the concentration range of 5 μM, MTT and morphological results) of the same molecule?
The cytotoxicity to keratinocytes was “no cytotoxicity”.

And the “Cell vitality Mean” value (keratinocytes; 0.5 μM)?
The value was 106.81%.

What about the “Cell vitality Mean” value (keratinocytes; 1 μM) of the same molecule?
Its value is 93.72%.

And the “Cell vitality Mean” value (keratinocytes; 2.5 μM)?
Its value is 93.60%.

What about the “Cell vitality Mean” value (keratinocytes; 5 μM) of the same molecule?
The value was 93.01%.

And the “Cell vitality Mean” value (keratinocytes; 10 μM)?
Its value is 84.00%.

And the “Cell vitality Mean” value (keratinocytes; 25 μM)?
Its value is 66.77%.

What about the “Cell vitality Mean” value (keratinocytes; 50 μM) of the same molecule?
Its value is 57.35%.

What about the “Cell vitality Mean” value (keratinocytes; 100 μM) of the same molecule?
The value was 50.36%.

And the “Filaggrin Increased ratio (compared to BC)” value (Filaggrin)?
Its value is 7.20%.

What about the “Filaggrin gene expression Mean (2^−ΔΔCT)” value (Filaggrin) of the same molecule?
The value was 1.101.

And the “Claudin-1 Increased ratio (compared to BC)” value (Claudin-1)?
Its value is 17.50%.

And the “Claudin-1 gene expression Mean (2^−ΔΔCT)” value (Claudin-1)?
The value was 1.182.

And the “expression of TYP-1 gene in melanocytes compared with the blank control group” value (TRP-1; P-value<0.01)?
The value was “significantly inhibits”.

What about the “TRP-1 Increased ratio (compared to BC)” value (TRP-1; qRT-PCR) of the same molecule?
Its value is 70.10%.

And the “TRP-1 gene expression Mean (2^−ΔΔCT)” value (TRP-1; qRT-PCR)?
The value was 0.304.

And the “TNFα Decreased ratio (compared to NC)” value (TNFα; 5 μM)?
Its value is 85%.

What about the “TNFα Average concentration” value (TNFα; 5 μM) of the same molecule?
The value was 18.97 pg/mL.

And the “secretion of TNFα” value (TNFα; [1])?
Its value is “decreases significantly”.

And the “IL-1α Decreased ratio (compared to NC)” value (IL-1α; 5 μM)?
Its value is 67%.

And the “IL-1α Average concentration” value (IL-1α; 5 μM)?
Its value is 43.65 pg/mL.

What about the “secretion of IL-1α” value (IL-1α; [1]) of the same molecule?
The value was “decreases significantly”.

And the “expression of TYR gene in melanocytes compared with the blank control group” value (TYR; P-value<0.01)?
Its value is “significantly inhibits”.

And the “TYR Increased ratio (compared to BC)” value (TYR; qRT-PCR)?
The value was 51.8%.

And the “TYR gene expression Mean (2^−ΔΔCT)” value (TYR; qRT-PCR)?
Its value is 0.488.

What about the “expression of MITF gene in melanocytes compared with the blank control group” value (MITF; P-value<0.01) of the same molecule?
The value was “significantly inhibits”.

And the “MITF Increased ratio (compared to BC)” value (MITF; qRT-PCR)?
The value was 57.8%.

And the “MITF gene expression Mean (2^−ΔΔCT)” value (MITF; qRT-PCR)?
The value was 0.432.

And the cytotoxicity to melanocytes (melanocytes; in the concentration range of 100 μM)?
Its cytotoxicity to melanocytes is “no cytotoxicity”.

And the “Cell vitality Mean” value (melanocytes; 0.5 μM)?
Its value is 105.78%.

What about the “Cell vitality Mean” value (melanocytes; 1 μM) of the same molecule?
Its value is 99.02%.

And the “Cell vitality Mean” value (melanocytes; 2.5 μM)?
Its value is 96.68%.

What about the “Cell vitality Mean” value (melanocytes; 5 μM) of the same molecule?
The value was 95.56%.

What about the “Cell vitality Mean” value (melanocytes; 10 μM) of the same molecule?
The value was 99.51%.

And the “Cell vitality Mean” value (melanocytes; 25 μM)?
The value was 99.51%.

And the “Cell vitality Mean” value (melanocytes; 50 μM)?
The value was 108.86%.

And the “Cell vitality Mean” value (melanocytes; 100 μM)?
The value was 96.62%.

What about the “expression of AQP3 gene in keratinocytes compared with the blank control group” value (AQP3 gene; P-value<0.01) of the same molecule?
Its value is “significantly promotes”.

What about the “AQP3 Increased ratio (compared to BC)” value (AQP3 gene; qRT-PCR) of the same molecule?
Its value is 34.20%.

What about the “AQP3 gene expression Mean (2^−ΔΔCT)” value (AQP3 gene; qRT-PCR) of the same molecule?
Its value is 1.345.

What about the “CD44 Increased ratio (compared to BC)” value (CD44) of the same molecule?
The value was −21.90%.

What about the “CD44 gene expression Mean (2^−ΔΔCT)” value (CD44) of the same molecule?
The value was 0.785.

And the “HAS2 Increased ratio (compared to BC)” value (HAS2)?
The value was −14.70%.

And the “HAS2 gene expression Mean (2^−ΔΔCT)” value (HAS2)?
The value was 0.898.
